Data published in article PMC8364686, “Safety, tolerability, pharmacokinetics and pharmacodynamics of single oral doses of BI 187004, an inhibitor of 11beta-hydroxysteroid dehydrogenase-1, in healthy male volunteers with overweight or obesity” (Clinical Diabetes and Endocrinology, 2021).
“And” between values parts separate entries of the source, which are not always exact repeats. Equal values may be shown once. Read-outs that look alike come from different tables or passages of the source.

Tests used:
[1] = Urinary excretion of BI 187004 (LC–MS/MS); type: in vivo, human
Text: For each accepted run, the acceptance criteria for the calibration standards and quality controls were met.

[2] = BI 187004 concentration in subcutaneous adipose tissue biopsies (LC–MS/MS); type: in vivo, human; conditions: for Kp at 10 h / Kp at 24 h / concentration at 10 h / concentration at 24 h: male, human, oral; for Kp at 10 h: read-out: AT:plasma ratio (range) 10 h; for Kp at 24 h: read-out: AT:plasma ratio (range) 24 h; for concentration at 10 h: read-out: AT C10 gMean (range); for concentration at 24 h: read-out: AT C24 gMean (range)
Method: The assay was qualified for the BI 187004 concentration range of 2.5—10,000 ng/g. The BI 187004 AT concentration data for study samples were generated from seven analytical runs. For each run, the acceptance criteria for the calibration standards and QC samples were met. Acceptance criteria for all sample analysis runs were ≤ 25% RSD (relative standard deviation / precision) and ± 25% RE (relative error / accuracy) for calibration standards and quality control samples.

N#Cc1ccc2c(c1)[C@H]1CCCN(C(=O)c3ccc4[nH]cnc4c3)[C@H]1C2 [BI 187004]
Fraction of dose excreted in urine (renal excretion), range across dose groups ([1]; 0–72 h collection interval): 3–5% and 3.00–4.93% | fe0-72 h (fraction eliminated in urine from 0 to 72 h) ([1]; 5 mg single oral dose): 3.00% | fe0-72 h (fraction eliminated in urine from 0 to 72 h) ([1]; 10 mg single oral dose): 4.03% | fe0-72 h (fraction eliminated in urine from 0 to 72 h) ([1]; 20 mg single oral dose): 4.93% | fe0-72 h (fraction eliminated in urine from 0 to 72 h) ([1]; 40 mg single oral dose): 4.21% | fe0-72 h (fraction eliminated in urine from 0 to 72 h) ([1]; 80 mg single oral dose): 4.55% | fe0-72 h (fraction eliminated in urine from 0 to 72 h) ([1]; 160 mg single oral dose): 4.75% | fe0-72 h (fraction eliminated in urine from 0 to 72 h) ([1]; 240 mg single oral dose): 4.88% | fe0-72 h (fraction eliminated in urine from 0 to 72 h) ([1]; 360 mg single oral dose): 4.25% | AT:plasma ratio (range) 24 h ([2]; 10 mg single dose, 24 h, only range printed): – (9.58 – 20.1) | AT C24 gMean (range) ([2]; 10 mg single dose, adipose tissue, 24 h, only range printed): – (9.91 – 22.6) nmol/L | Plasma concentration compared with AT concentration (times higher) ([2]; 24 h post dosing): approximately 10 | Ratio ATC24/PlasmaC24, range across dose groups ([2]; 24 h post dosing): 8.58—11.4 | Kp at 10 h ([2]; subcutaneous adipose tissue / plasma, 40 mg single dose): 10.1 | Kp at 24 h ([2]; subcutaneous adipose tissue / plasma, 40 mg single dose, 24 h): 8.58 | Kp at 10 h ([2]; subcutaneous adipose tissue / plasma, 80 mg single dose): 8.36 | Kp at 24 h ([2]; subcutaneous adipose tissue / plasma, 80 mg single dose, 24 h): 9.62 | Kp at 10 h ([2]; subcutaneous adipose tissue / plasma, 160 mg single dose): 13.7 | Kp at 24 h ([2]; subcutaneous adipose tissue / plasma, 160 mg single dose, 24 h): 10.3 | Kp at 24 h ([2]; subcutaneous adipose tissue / plasma, 240 mg single dose, 24 h): 9.96 | Kp at 10 h ([2]; subcutaneous adipose tissue / plasma, 360 mg single dose): 16.2 | Kp at 24 h ([2]; subcutaneous adipose tissue / plasma, 360 mg single dose, 24 h): 11.4 | Kp at 10 h ([2]; subcutaneous adipose tissue and plasma, 240 mg single dose): 25.1 | Kp at 10 h ([2]; subcutaneous adipose tissue, 10 mg single dose): 10.3 | concentration at 10 h ([2]; subcutaneous adipose tissue, 10 mg single dose, adipose tissue): 0.0179 µM | Kp at 10 h ([2]; subcutaneous adipose tissue, 20 mg single dose): 9.97 | Kp at 24 h ([2]; subcutaneous adipose tissue, 20 mg single dose, 24 h): 10.8 | concentration at 10 h ([2]; subcutaneous adipose tissue, 20 mg single dose, adipose tissue): 0.0381 µM | concentration at 24 h ([2]; subcutaneous adipose tissue, 20 mg single dose, adipose tissue, 24 h): 0.0175 µM | concentration at 10 h ([2]; subcutaneous adipose tissue, 40 mg single dose, adipose tissue): 0.0803 µM | concentration at 24 h ([2]; subcutaneous adipose tissue, 40 mg single dose, adipose tissue, 24 h): 0.0275 µM | concentration at 10 h ([2]; subcutaneous adipose tissue, 80 mg single dose, adipose tissue): 0.128 µM | concentration at 24 h ([2]; subcutaneous adipose tissue, 80 mg single dose, adipose tissue, 24 h): 0.0845 µM | concentration at 10 h ([2]; subcutaneous adipose tissue, 160 mg single dose, adipose tissue): 0.412 µM | concentration at 24 h ([2]; subcutaneous adipose tissue, 160 mg single dose, adipose tissue, 24 h): 0.168 µM | concentration at 10 h ([2]; subcutaneous adipose tissue, 240 mg single dose, adipose tissue): 0.653 µM | concentration at 24 h ([2]; subcutaneous adipose tissue, 240 mg single dose, adipose tissue, 24 h): 0.212 µM | concentration at 10 h ([2]; subcutaneous adipose tissue, 360 mg single dose, adipose tissue): 0.857 µM | concentration at 24 h ([2]; subcutaneous adipose tissue, 360 mg single dose, adipose tissue, 24 h): 0.307 µM
